Results published in patent US12037415B2, “Peptide and pharmaceutical composition for treating an eye disease comprising the same as an active pharmaceutical ingredient” (YuYu Pharma, Inc., priority 2017, dated 2024).
Non-standard residues stand in square brackets, D forms with d. Residues, ends and D or L forms follow the SMILES beside them. No end group written: not given here. ξ: configuration not given here. Hyp = O=C(O)[C@@H]1C[C@@H](O)CN1; Ile(3ξ) = CCC(C)[C@H](N)C(=O)O; Sar = CNCC(=O)O

What was measured:
[1] = test system: rats with dry eye syndrome (extraorbital lacrimal gland excision, ELGE); assay: Amount of tear secretion (Schirmer test, cobalt chloride paper) in rats with ELGE-induced dry eye syndrome; assay type: in vivo, rat; conditions: for Amount of tear secretion as compared with the ELGE control group: 0.3% solution (DS 3%), administration for 14 days, study of YDE-001 to YDE-028
From the text: In order to evaluate the eye protection effect on dry eye syndrome by YDE-001 to YDE-028 prepared in Working Example 1, a total of 320 Sprague-Dawley-type male rats (OrientBio, Seungnam, Korea) were adapted for 7 days. Thereafter, dry eye syndrome was induced in 264 test rats through extraorbital lacrimal gland excision (hereinafter, ELGE). 8 test rats without the eye abnormality were subjected to a sham operation as a control group.
The rats were systemically anesthetized by inhaling a mixed gas of 2% to 3% of isoflurane (Hana Pharm. Co., Hwasung, Korea), 70% of N2O, and 28.6% of O2 using a rodent anesthesia machine (Surgivet, Waukesha, Wis., USA) and a ventilator (Model 687, Harvard Apparatus, Cambridge, UK). Thereafter, the extraorbital lacrimal gland located in the subdermal area above the masseter muscle and under the optic nerve was excised through a transverse incision in a size of 10 mm on the anterior part of the left ear tragus. The skin was sutured by a general method. […] After 6 days following the ELGE operation, confirmation was performed through the Schirmer test by measuring the amount of tear secretion whether dry eye syndrome had been induced. Meanwhile, each rat of the control group with the sham operation was checked for the presence and location of the extraorbital lacrimal gland through a skin incision, and the skin was then sutured without the excision thereof (FIG. 134).
In addition, in order to evaluate the eye protection effect on dry eye syndrome by YDE-029 to YDE-043 prepared in Working Example 1, a total of 200 Sprague-Dawley-type male rats (OrientBio, Seungnam, Korea) were adapted for 7 days. Dry eye syndrome was induced in 165 test rats through the ELGE. 8 test rats without the eye abnormality were subjected to the sham operation as a control group. The ELGE was carried out as described above.
(§1) For YDE-001 to YDE-028, YY-102 and the 28 YDE-series were each dissolved in physiological saline at a concentration of 3 mg/ml and administered at a dose of 5 μl/eye at 9:30 am and 3:30 pm daily for 14 days after 7 days from the ELGE operation for a total of 28 times. The DS solution was dissolved in physiological saline at a concentration of 30 mg/ml and administered at a dose of 5 μl/eye twice a day for 14 days after 7 days from the ELGE operation for a total of 28 times. For the sham control and the ELGE control groups, the same stimulation as the administration was applied. In order to prevent excessive eye dryness, the same volume of physiological saline was applied in the same manner in place of the test substances.
as §1, with “Further, For YDE-029” for “For YDE-001”, “Further, For YDE-029 to YDE-043,” for “For YDE-001 to YDE-028,”, “YDE-029 to YDE-043, YY-102 and” for “YDE-001 to YDE-028, YY-102 and”, “and the 15 YDE-series were” for “and the 28 YDE-series were”, “the test substances (FIG. 137).” for “the test substances.”
After 6 days from the ELGE surgery, the changes in the amount of tear secretion were measured at day 7 and day 14 after the administration of YDE-001 to YDE-043. The amount of tear secretion was measured by the […] travel distance of tears absorbed by cobalt chloride paper in a size of 1×15 mm (Toyo Roshi Kaisha, Japan).
The cobalt chloride paper was placed in the lateral canthus of a rat for 60 seconds to absorb tears (FIG. 139). The length of the area absorbed from the corner of the cobalt chloride paper was measured with an electronic digital caliper (Mytutoyo, Tokyo, Japan) (FIG. 138).

[2] = test system: cornea of rats with dry eye syndrome (ELGE); assay: Corneal permeability of fluorescent dye (corneal damage) in rats with ELGE-induced dry eye syndrome; assay type: in vivo, rat; conditions: 0.3% solution, day 14 after the administration, study of YDE-001 to YDE-028 (Table 16)
In short: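 Dry eye induced in male Sprague-Dawley rats by extraorbital lacrimal gland excision, confirmed by Schirmer test. From day 7 post-surgery, compounds at 3 mg/ml in saline given topically 5 μl/eye twice daily. After 14 doses, 1% fluorescein applied for 1 h under anesthesia, with corneal permeability scored by slit-lamp 12–24 h later.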

[3] = Stability in aqueous solution, amount of related substances under long-term storage conditions; assay type: physicochemical; conditions: glass vial, 25° C., 75% RH
In short: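 Test substances dissolved in water at 1 mg/ml, sealed in glass vials and held at 25° C./75% RH. Related substances measured at 1, 2, 4, 8 and 12 weeks.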

Amount of related substances (%; after 12 weeks) [3] | Compound | Amount of tear secretion as compared with the ELGE control group [1] | Permeability of fluorescent dye (%) [2] | Tear Volumes, Day 7 ([1]; ELGE rats, 0.3% solution, 5 μl/eye twice daily, day 7 of administration, study of YDE-001 to YDE-028 (Table 14)) | Tear Volumes, Day 14 ([1]; ELGE rats, 0.3% solution, 5 μl/eye twice daily, day 14 of administration, study of YDE-001 to YDE-028 (Table 14))
19.23% | CC(C)C[C@H](NC(=O)[C@H](Cc1c[nH]cn1)NC(=O)[C@H](CC(=O)O)NC(=O)[C@H](CCC(N)=O)NC(=O)CNC(=O)[C@@H]1C[C@@H](O)CN1)C(=O)N[C@@H](C)C(=O)NCC(=O)N1CCC[C@H]1C(=O)N[C@@H](CCCCN)C(=O)O [YDE-022, HyP-Gly-Gln-Asp-His-Leu-Ala-Gly-Pro-Lys] (H-[Hyp]GQDHLAGPK-OH) | did not show any significant changes | 47.82 ± 10.01% |  | 
21.33% | CC(C)C[C@H](NC(=O)[C@H](Cc1c[nH]c2ccccc12)NC(=O)[C@H](CC(=O)O)NC(=O)[C@H](CCC(N)=O)NC(=O)CNC(=O)[C@@H]1C[C@@H](O)CN1)C(=O)N[C@@H](C)C(=O)NCC(=O)N1CCC[C@H]1C(=O)N[C@@H](CCCCN)C(=O)O [YDE-021, HyP-Gly-Gln-Asp-Trp-Leu-Ala-Gly-Pro-Lys] (H-[Hyp]GQDWLAGPK-OH) | did not show any significant changes | 37.00 ± 10.49% |  | 

Second part, the compound before the results:

Compound | Amount of related substances (%; after 12 weeks) [3] | Amount of tear secretion as compared with the ELGE control group [1] | Permeability of fluorescent dye (%) [2] | Tear Volumes, Day 7 ([1]; ELGE rats, 0.3% solution, 5 μl/eye twice daily, day 7 of administration, study of YDE-001 to YDE-028 (Table 14)) | Tear Volumes, Day 14 ([1]; ELGE rats, 0.3% solution, 5 μl/eye twice daily, day 14 of administration, study of YDE-001 to YDE-028 (Table 14))
CNC(=O)C[C@H](NC(=O)[C@H](CCC(N)=O)NC(=O)CNC(=O)[C@@H]1C[C@@H](O)CN1)C(=O)NCC(=O)N[C@@H](CC(C)C)C(=O)N[C@@H](C)C(=O)NCC(=O)N1CCC[C@H]1C(=O)N[C@@H](CCCCN)C(=O)O [YDE-028, HyP-Gly-Gln-Asn(Me)-Gly-Leu-Ala-Gly-Pro-Lys] (H-[Hyp]GQD(NHMe)GLAGPK-OH) | 1.15% | did not show any significant changes | 41.17 ± 10.25% |  | 
CCC(C)[C@H](NC(=O)[C@H](CCC(N)=O)NC(=O)CNC(=O)[C@@H]1C[C@@H](O)CN1)C(=O)NCC(=O)N[C@@H](CC(C)C)C(=O)N[C@@H](C)C(=O)NCC(=O)N1CCC[C@H]1C(=O)N[C@@H](CCCCN)C(=O)O (stereo partly drawn) [YDE-010, HyP-Gly-Gln-Ile-Gly-Leu-Ala-Gly-Pro-Lys] (H-[Hyp]GQ[Ile(3ξ)]GLAGPK-OH) | 4.39% | did not show any significant changes | 49.29 ± 12.06% |  | 
CC(C)C[C@H](NC(=O)CNC(=O)[C@@H](NC(=O)[C@H](CCC(N)=O)NC(=O)CNC(=O)[C@@H]1C[C@@H](O)CN1)C(C)C)C(=O)N[C@@H](C)C(=O)NCC(=O)N1CCC[C@H]1C(=O)N[C@@H](CCCCN)C(=O)O [YDE-009, HyP-Gly-Gln-Val-Gly-Leu-Ala-Gly-Pro-Lys] (H-[Hyp]GQVGLAGPK-OH) | 4.71% | did not show any significant changes | 41.50 ± 7.86% |  | 
YDE-025: peptide of SEQ ID NO: 31, the compound represented by Formula 10 ([Hyp]GQD[Sar]LAGPK; ends and bridges not checked) | 5.17% | did not show any significant changes | 47.10 ± 11.45% | 3.21 ± 0.72 mm^3 | 4.72 ± 2.19 mm^3
